Laboratory results taken from the supplement of paper PMC10307832.

What was measured:
Experiment in all cases: relative viability (nuclei count vs DMSO), 5 days (fraction); higher = more cells survive
[1] = system: NCI-H2009
How it was run: (§1)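 Dosing by pin tool came one day after lung cancer cell lines were seeded in 1536-well plates, using either one drug or a fixed anchor-drug dose plus five library-drug doses (not always all listed) in √10 steps. After 5 days, nuclei were counted on 4× images. Relative viability is treated-well nuclei count divided by vehicle-well nuclei count, and values are medians of duplicate plates.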

[2] = system: NCI-H1651
How it was run: as §1

[3] = system: NCI-H647
How it was run: as §1

[4] = system: PC-14
How it was run: as §1

[5] = system: NCI-H2170
How it was run: as §1

[6] = system: SK-MES-1
How it was run: as §1

[7] = system: LXF-289
How it was run: as §1

[8] = system: LK-2
How it was run: as §1

[9] = system: NCI-H2087
How it was run: as §1

[10] = system: CAL-12T
How it was run: as §1

[11] = system: NCI-H1755
How it was run: as §1

[12] = system: H3255
How it was run: as §1

[13] = system: NCI-H322M
How it was run: as §1

[14] = system: NCI-H596
How it was run: as §1

[15] = system: NCI-H2126
How it was run: as §1

[16] = system: EMC-BAC-2
How it was run: as §1

[17] = system: 201T
How it was run: as §1

[18] = system: NCI-H3122
How it was run: as §1

[19] = system: HOP-62
How it was run: as §1

[20] = system: ABC-1
How it was run: as §1

[21] = system: NCI-H1734
How it was run: as §1

O=c1[nH]c2ccccc2n1C1CCN(CCCC(c2ccc(F)cc2)c2ccc(F)cc2)CC1 [Pimozide] + CS(=O)(=O)CCNCc1ccc(-c2ccc3ncnc(Nc4ccc(OCc5cccc(F)c5)c(Cl)c4)c3c2)o1 [Lapatinib] (partner 2 µM)
relative viability ([1]; first compound 0.08 µM): 0.955
relative viability ([1]; first compound 0.253 µM): 0.977
relative viability ([1]; first compound 0.8 µM): 0.861
relative viability ([1]; first compound 2.53 µM): 0.715
relative viability ([1]; first compound 8 µM): 0.763
relative viability ([2]; first compound 0.08 µM): 0.967
relative viability ([2]; first compound 0.253 µM): 0.734
relative viability ([2]; first compound 0.8 µM): 0.934
relative viability ([2]; first compound 2.53 µM): 0.809
relative viability ([2]; first compound 8 µM): 0.746
relative viability ([3]; first compound 0.08 µM): 1.18
relative viability ([3]; first compound 0.253 µM): 1.03
relative viability ([3]; first compound 0.8 µM): 0.973
relative viability ([3]; first compound 2.53 µM): 0.964
relative viability ([3]; first compound 8 µM): 0.58
relative viability ([4]; first compound 0.253 µM): 0.38
relative viability ([4]; first compound 0.8 µM): 0.297
relative viability ([4]; first compound 2.53 µM): 0.334
relative viability ([4]; first compound 8 µM): 0.325
relative viability ([5]; first compound 0.08 µM): 0.277
relative viability ([5]; first compound 0.253 µM): 0.278
relative viability ([5]; first compound 0.8 µM): 0.276
relative viability ([5]; first compound 2.53 µM): 0.283
relative viability ([5]; first compound 8 µM): 0.272
relative viability ([6]; first compound 0.08 µM): 0.468
relative viability ([6]; first compound 0.253 µM): 0.445
relative viability ([6]; first compound 0.8 µM): 0.451
relative viability ([6]; first compound 2.53 µM): 0.491
relative viability ([6]; first compound 8 µM): 0.507
relative viability ([7]; first compound 0.08 µM): 0.863
relative viability ([7]; first compound 0.253 µM): 0.937
relative viability ([7]; first compound 0.8 µM): 0.882
relative viability ([7]; first compound 2.53 µM): 0.87
relative viability ([7]; first compound 8 µM): 0.829
relative viability ([8]; first compound 0.08 µM): 0.851
relative viability ([8]; first compound 0.253 µM): 0.842
relative viability ([8]; first compound 0.8 µM): 0.731
relative viability ([8]; first compound 2.53 µM): 0.78
relative viability ([8]; first compound 8 µM): 1.13
relative viability ([9]; first compound 0.08 µM): 0.999
relative viability ([9]; first compound 0.253 µM): 1.1
relative viability ([9]; first compound 0.8 µM): 0.825
relative viability ([9]; first compound 2.53 µM): 1.06
relative viability ([9]; first compound 8 µM): 0.847
relative viability ([10]; first compound 0.08 µM): 0.57
relative viability ([10]; first compound 0.253 µM): 0.588
relative viability ([10]; first compound 0.8 µM): 0.551
relative viability ([10]; first compound 2.53 µM): 0.538
relative viability ([10]; first compound 8 µM): 0.625
relative viability ([11]; first compound 0.08 µM): 1.01
relative viability ([11]; first compound 0.253 µM): 1.01
relative viability ([11]; first compound 0.8 µM): 0.951
relative viability ([11]; first compound 2.53 µM): 1.03
relative viability ([11]; first compound 8 µM): 0.849
relative viability ([12]; first compound 0.253 µM): 0.281
relative viability ([12]; first compound 0.8 µM): 0.266
relative viability ([12]; first compound 2.53 µM): 0.229
relative viability ([12]; first compound 8 µM): 0.254
relative viability ([13]; first compound 0.253 µM): 0.56
relative viability ([13]; first compound 0.8 µM): 0.584
relative viability ([13]; first compound 2.53 µM): 0.635
relative viability ([13]; first compound 8 µM): 0.525
relative viability ([14]; first compound 0.08 µM): 1
relative viability ([14]; first compound 0.253 µM): 1.15
relative viability ([14]; first compound 0.8 µM): 1.16
relative viability ([14]; first compound 2.53 µM): 1.01
relative viability ([14]; first compound 8 µM): 0.87
relative viability ([15]; first compound 0.08 µM): 0.743
relative viability ([15]; first compound 0.253 µM): 0.675
relative viability ([15]; first compound 0.8 µM): 0.708
relative viability ([15]; first compound 2.53 µM): 0.724
relative viability ([15]; first compound 8 µM): 0.766
relative viability ([16]; first compound 0.08 µM): 0.865
relative viability ([16]; first compound 0.253 µM): 0.832
relative viability ([16]; first compound 0.8 µM): 0.843
relative viability ([16]; first compound 2.53 µM): 0.885
relative viability ([16]; first compound 8 µM): 0.868
relative viability ([17]; first compound 0.08 µM): 1.01
relative viability ([17]; first compound 0.253 µM): 1.05
relative viability ([17]; first compound 0.8 µM): 1.01
relative viability ([17]; first compound 2.53 µM): 0.995
relative viability ([17]; first compound 8 µM): 0.926
relative viability ([18]; first compound 0.08 µM): 1
relative viability ([18]; first compound 0.253 µM): 1
relative viability ([18]; first compound 0.8 µM): 0.813
relative viability ([18]; first compound 2.53 µM): 1
relative viability ([18]; first compound 8 µM): 1.01
relative viability ([19]; first compound 0.08 µM): 0.917
relative viability ([19]; first compound 0.253 µM): 1.09
relative viability ([19]; first compound 2.53 µM): 0.995
relative viability ([19]; first compound 8 µM): 1.06
relative viability ([20]; first compound 0.08 µM): 1.18
relative viability ([20]; first compound 0.253 µM): 0.951
relative viability ([20]; first compound 0.8 µM): 1.13
relative viability ([20]; first compound 2.53 µM): 1.16
relative viability ([20]; first compound 8 µM): 1.22
relative viability ([21]; first compound 0.08 µM): 1.04
relative viability ([21]; first compound 0.253 µM): 1.07
relative viability ([21]; first compound 0.8 µM): 0.978
relative viability ([21]; first compound 2.53 µM): 0.96
relative viability ([21]; first compound 8 µM): 0.671
